ChEMBL document CHEMBL5154652, “Design, synthesis and anti-hepatocellular carcinoma activity of 3-arylisoquinoline alkaloids” (Eur J Med Chem, 2022)
Activity calls are given as the source filed them. No cut-off for these calls is given here.

The compounds below were run on HepG2 (assay: Antiproliferative activity against human HepG2 cells after 72 hrs by MTT assay). Conditions: HepG2, 72 h.
Format: functional, cell-based

Row | SMILES | IC50 [µM]
1 | CNCCCCc1cc2c(cc1-c1cc3ccc4c(c3cn1)OCO4)OCO2 | 23.2
2 | OCc1c(-c2cc3c4c(ccc3cn2)OCO4)ccc2c1OCO2 | > 150
3 | CN(C)Cc1cc2c(cc1-c1cc3ccc4c(c3cn1)OCO4)OCO2 | 20.8
4 | COc1cc(CCN(C)C)c(-c2cc3ccc4c(c3cn2)OCO4)cc1OC | > 150

These compounds were tested on HT-29 (assay: Antiproliferative activity against human HT-29 cells after 72 hrs by MTT assay). Conditions: HT-29, 72 h.
Format: functional, cell-based

Row | SMILES | IC50 [µM]
5 | CNCCCCc1cc2c(cc1-c1cc3ccc4c(c3cn1)OCO4)OCO2 | 27.5
6 | OCc1c(-c2cc3c4c(ccc3cn2)OCO4)ccc2c1OCO2 | > 150
7 | CN(C)Cc1cc2c(cc1-c1cc3ccc4c(c3cn1)OCO4)OCO2 | 36
8 | COc1cc(CCN(C)C)c(-c2cc3ccc4c(c3cn2)OCO4)cc1OC | 146

Each compound was assayed on BGC-823 (assay: Antiproliferative activity against human BGC-823 cells after 72 hrs by MTT assay). Conditions: BGC-823, 72 h.
Format: functional, cell-based

Row | SMILES | IC50 [µM]
9 | CNCCCCc1cc2c(cc1-c1cc3ccc4c(c3cn1)OCO4)OCO2 | 26.7
10 | COc1cc(CCN(C)C)c(-c2cc3ccc4c(c3cn2)OCO4)cc1OC | 31.6

The compounds below were run on SGC-7901 (assay: Antiproliferative activity against human SGC-7901 cells after 72 hrs by MTT assay). Conditions: SGC-7901, 72 h.
Format: functional, cell-based

Row | SMILES | IC50 [µM]
11 | CNCCCCc1cc2c(cc1-c1cc3ccc4c(c3cn1)OCO4)OCO2 | 20
12 | CN(C)Cc1cc2c(cc1-c1cc3ccc4c(c3cn1)OCO4)OCO2 | 48.2
13 | COc1cc(CCN(C)C)c(-c2cc3ccc4c(c3cn2)OCO4)cc1OC | 81.9

The compounds below were run on HGC-27 (assay: Antiproliferative activity against human HGC-27 cells after 72 hrs by MTT assay). Conditions: HGC-27, 72 h.
Format: functional, cell-based

Row | SMILES | IC50 [µM]
14 | CNCCCCc1cc2c(cc1-c1cc3ccc4c(c3cn1)OCO4)OCO2 | 55.3
15 | CN(C)Cc1cc2c(cc1-c1cc3ccc4c(c3cn1)OCO4)OCO2 | 19.1
16 | COc1cc(CCN(C)C)c(-c2cc3ccc4c(c3cn2)OCO4)cc1OC | > 150

These compounds were tested on U-251 (assay: Antiproliferative activity against human U-251 cells after 72 hrs by MTT assay). Conditions: U-251, 72 h.
Format: functional, cell-based

Row | SMILES | IC50 [µM]
17 | CNCCCCc1cc2c(cc1-c1cc3ccc4c(c3cn1)OCO4)OCO2 | 10.8
18 | CN(C)Cc1cc2c(cc1-c1cc3ccc4c(c3cn1)OCO4)OCO2 | 24.6
19 | COc1cc(CCN(C)C)c(-c2cc3ccc4c(c3cn2)OCO4)cc1OC | 65.1

The compounds below were run on RKO (assay: Antiproliferative activity against human RKO cells after 72 hrs by MTT assay). Conditions: not given.
Format: functional, cell-based

Row | SMILES | IC50 [µM]
20 | CNCCCCc1cc2c(cc1-c1cc3ccc4c(c3cn1)OCO4)OCO2 | 81.7
21 | OCc1c(-c2cc3c4c(ccc3cn2)OCO4)ccc2c1OCO2 | > 150
22 | CN(C)Cc1cc2c(cc1-c1cc3ccc4c(c3cn1)OCO4)OCO2 | 28.7
23 | COc1cc(CCN(C)C)c(-c2cc3ccc4c(c3cn2)OCO4)cc1OC | > 150

The compounds below were run on HCT-116 (assay: Antiproliferative activity against human HCT-116 cells after 72 hrs by MTT assay). Conditions: HCT-116, 72 h.
Format: functional, cell-based

Row | SMILES | IC50 [µM]
24 | CNCCCCc1cc2c(cc1-c1cc3ccc4c(c3cn1)OCO4)OCO2 | 57.6
25 | OCc1c(-c2cc3c4c(ccc3cn2)OCO4)ccc2c1OCO2 | > 150
26 | CN(C)Cc1cc2c(cc1-c1cc3ccc4c(c3cn1)OCO4)OCO2 | 67.2
27 | COc1cc(CCN(C)C)c(-c2cc3ccc4c(c3cn2)OCO4)cc1OC | > 150

These compounds were tested on MCF7 (assay: Antiproliferative activity against human MCF7 cells after 72 hrs by MTT assay). Conditions: MCF7, 72 h.
Format: functional, cell-based

Row | SMILES | IC50 [µM]
28 | CNCCCCc1cc2c(cc1-c1cc3ccc4c(c3cn1)OCO4)OCO2 | 54.6
29 | COc1cc(CCN(C)C)c(-c2cc3ccc4c(c3cn2)OCO4)cc1OC | 94.6

The compounds below were run on A549 (assay: Antiproliferative activity against human A549 cells after 72 hrs by MTT assay). Conditions: A549, 72 h.
Format: functional, cell-based

Row | SMILES | IC50 [µM]
30 | CNCCCCc1cc2c(cc1-c1cc3ccc4c(c3cn1)OCO4)OCO2 | 18.7
31 | CN(C)Cc1cc2c(cc1-c1cc3ccc4c(c3cn1)OCO4)OCO2 | 17.4
32 | COc1cc(CCN(C)C)c(-c2cc3ccc4c(c3cn2)OCO4)cc1OC | > 150

These compounds were tested on MDA-MB-231 (assay: Antiproliferative activity against human MDA-MB-231 cells after 72 hrs by MTT assay). Conditions: MDA-MB-231, 72 h.
Format: functional, cell-based

Row | SMILES | IC50 [µM]
33 | CNCCCCc1cc2c(cc1-c1cc3ccc4c(c3cn1)OCO4)OCO2 | 19.6
34 | CN(C)Cc1cc2c(cc1-c1cc3ccc4c(c3cn1)OCO4)OCO2 | 12.8
35 | COc1cc(CCN(C)C)c(-c2cc3ccc4c(c3cn2)OCO4)cc1OC | 103

These compounds were tested on HL-60 (assay: Antiproliferative activity against human HL-60 cells after 72 hrs by MTT assay). Conditions: HL-60, 72 h.
Format: functional, cell-based

Row | SMILES | IC50 [µM]
36 | CN(C)Cc1cc2c(cc1-c1cc3ccc4c(c3cn1)OCO4)OCO2 | 115
37 | COc1cc(CCN(C)C)c(-c2cc3ccc4c(c3cn2)OCO4)cc1OC | > 150

The compounds below were run on Huh-7 (assay: Antiproliferative activity against human Huh-7 cells after 72 hrs by MTT assay). Conditions: Huh-7, 72 h.
Format: functional, cell-based

Row | SMILES | IC50 [µM]
38 | CNCCCCc1cc2c(cc1-c1cc3ccc4c(c3cn1)OCO4)OCO2 | 13.7
39 | OCc1c(-c2cc3c4c(ccc3cn2)OCO4)ccc2c1OCO2 | 40.8
40 | CN(C)Cc1cc2c(cc1-c1cc3ccc4c(c3cn1)OCO4)OCO2 | 11.2
41 | COc1cc(CCN(C)C)c(-c2cc3ccc4c(c3cn2)OCO4)cc1OC | 59.5

Each compound was assayed on L02 (assay: Antiproliferative activity against human L02 cells after 72 hrs by MTT assay). Conditions: L02, 72 h.
Format: functional, cell-based

Row | SMILES | IC50 [µM]
42 | OCc1c(-c2cc3c4c(ccc3cn2)OCO4)ccc2c1OCO2 | > 150
43 | CN(C)Cc1cc2c(cc1-c1cc3ccc4c(c3cn1)OCO4)OCO2 | > 150
44 | COc1cc(CCN(C)C)c(-c2cc3ccc4c(c3cn2)OCO4)cc1OC | > 150

Each compound was assayed on SK-HEP1 (assay: Antiproliferative activity against human SK-HEP1 cells after 72 hrs by MTT assay). Conditions: SK-HEP1, 72 h.
Format: functional, cell-based

Row | SMILES | IC50 [µM]
45 | CNCCCCc1cc2c(cc1-c1cc3ccc4c(c3cn1)OCO4)OCO2 | 16
46 | CN(C)Cc1cc2c(cc1-c1cc3ccc4c(c3cn1)OCO4)OCO2 | 17.2

Each compound was assayed on SW480 (assay: Antiproliferative activity against human SW480 cells after 72 hrs by MTT assay). Conditions: SW480, 72 h.
Format: functional, cell-based

Row | SMILES | IC50 [µM]
47 | CNCCCCc1cc2c(cc1-c1cc3ccc4c(c3cn1)OCO4)OCO2 | 15.2
48 | OCc1c(-c2cc3c4c(ccc3cn2)OCO4)ccc2c1OCO2 | > 150
49 | CN(C)Cc1cc2c(cc1-c1cc3ccc4c(c3cn1)OCO4)OCO2 | 8.54
50 | COc1cc(CCN(C)C)c(-c2cc3ccc4c(c3cn2)OCO4)cc1OC | 40.6

These compounds were tested against DNA topoisomerase 1 (Homo sapiens) (UniProt P11387) (assay: Inhibition of DNA topoisomerase 1 (unknown origin) at 25 to 50 uM measured by agar gel electrophoresis relative to control). Conditions: dose 25-50 µM.
Sequence of DNA topoisomerase 1 (Homo sapiens) (P11387 whole entry): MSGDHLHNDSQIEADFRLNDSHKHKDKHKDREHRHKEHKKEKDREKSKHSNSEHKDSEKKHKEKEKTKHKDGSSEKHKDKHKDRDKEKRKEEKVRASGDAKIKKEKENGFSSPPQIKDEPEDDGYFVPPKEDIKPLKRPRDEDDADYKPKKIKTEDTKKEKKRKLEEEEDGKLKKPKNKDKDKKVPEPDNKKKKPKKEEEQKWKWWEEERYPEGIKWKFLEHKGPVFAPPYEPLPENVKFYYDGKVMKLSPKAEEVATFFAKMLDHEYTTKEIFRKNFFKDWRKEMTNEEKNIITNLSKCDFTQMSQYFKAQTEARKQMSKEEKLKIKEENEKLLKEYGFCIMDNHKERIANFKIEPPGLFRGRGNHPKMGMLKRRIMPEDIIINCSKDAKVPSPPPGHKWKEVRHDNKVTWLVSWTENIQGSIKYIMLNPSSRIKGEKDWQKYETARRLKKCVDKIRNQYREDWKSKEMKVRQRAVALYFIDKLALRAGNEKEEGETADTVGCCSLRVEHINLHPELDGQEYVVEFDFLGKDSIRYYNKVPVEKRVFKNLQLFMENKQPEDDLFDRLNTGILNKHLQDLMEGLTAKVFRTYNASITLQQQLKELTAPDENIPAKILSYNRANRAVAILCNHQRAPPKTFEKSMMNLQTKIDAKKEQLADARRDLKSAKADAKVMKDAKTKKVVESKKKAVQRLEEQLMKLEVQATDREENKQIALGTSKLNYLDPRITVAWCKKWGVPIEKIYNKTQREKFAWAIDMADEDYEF

Row | SMILES | inhibition
51 | CN(C)Cc1cc2c(cc1-c1cc3ccc4c(c3cn1)OCO4)OCO2 | Active

What follows are compounds tested on HCCLM9 (assay: Antiproliferative activity against human HCCLM9 cells after 72 hrs by MTT assay). Conditions: HCCLM9, 72 h.
Format: functional, cell-based

Row | SMILES | IC50 [µM]
52 | CNCCCCc1cc2c(cc1-c1cc3ccc4c(c3cn1)OCO4)OCO2 | 10.4
53 | OCc1c(-c2cc3c4c(ccc3cn2)OCO4)ccc2c1OCO2 | > 150
54 | CN(C)Cc1cc2c(cc1-c1cc3ccc4c(c3cn1)OCO4)OCO2 | 8.83
55 | COc1cc(CCN(C)C)c(-c2cc3ccc4c(c3cn2)OCO4)cc1OC | 32.4
